Key:
[1] = test system: mixed ruminal microorganisms; experiment: CH4 production in vitro with mixed ruminal microorganisms; type: cell-based
[2] = test system: Holstein steers; experiment: Ruminally cannulated steers given NaNO3 with or without strain NRRL 67118; type: in vivo; details: rumen samples of treated steers incubated in vitro

SMILES	CH4 production [1]	dCH4/dt ([2]; 83 mg NaNO3/kg body weight daily, Control 4.13)	Nitrate reduction ([2]; Control 0.42)	Nitrite reduction ([2]; Control 1.21)
O=N[O-].[Na+] [NO2, NaNO2]	zero			
O=[N+]([O-])[O-].[Na+] [NO3, NaNO3]		2.22 b umol/ml per h	0.54 e mM/hr	1.38 c mM/hr

Reference: US10494683B2, “Nitrate- and nitrite-reducing probiotic feed additive” (The United States of America, as represented by the …, priority 2015, dated 2019)
